Test results as given in paper PMC4770593, “Efficient microbial production of stylopine using a Pichia pastoris expression system” (Scientific Reports, 2016).

Columns and labels:
Experiment in all cases: LC-MS of product formed by Pichia cells expressing the enzyme
Assay type in all cases: cell-based
[1] = biological target: T1, BBE (EcBBE), berberine bridge enzyme (Eschscholzia californica, UniProt P30986); settings: in vivo reaction, BMMY medium pH 6.0, 30 °C, 24 h; racemic substrate; vector control
T1 construct: gene BBE1; codon-optimized synthetic gene in pPIC3.5/pPIC3.5K; expressed in Pichia pastoris GS115; whole cells

[2] = biological target: T2, CYP719A5 (EcCYP719A5), cheilanthifoline synthase (Eschscholzia californica, UniProt B5UAQ8); settings: in vivo reaction, BMMY medium pH 6.0, 30 °C, 24 h; vector control
T2 construct: codon-optimized synthetic gene in pPIC3.5/pPIC3.5K; expressed in Pichia pastoris GS115; whole cells, endogenous yeast reductase (no plant CPR)

[3] = biological target: T3, CYP719A2 (EcCYP719A2), stylopine synthase (Eschscholzia californica, UniProt C3SBS2); settings: in vivo reaction, BMMY medium pH 6.0, 30 °C, 24 h; substrate supplied as CYP719A5 reaction product; vector control
T3 construct: codon-optimized synthetic gene in pPIC3.5/pPIC3.5K; expressed in Pichia pastoris GS115; whole cells, endogenous yeast reductase (no plant CPR)
T3 sequence (C3SBS2 entry or part of it): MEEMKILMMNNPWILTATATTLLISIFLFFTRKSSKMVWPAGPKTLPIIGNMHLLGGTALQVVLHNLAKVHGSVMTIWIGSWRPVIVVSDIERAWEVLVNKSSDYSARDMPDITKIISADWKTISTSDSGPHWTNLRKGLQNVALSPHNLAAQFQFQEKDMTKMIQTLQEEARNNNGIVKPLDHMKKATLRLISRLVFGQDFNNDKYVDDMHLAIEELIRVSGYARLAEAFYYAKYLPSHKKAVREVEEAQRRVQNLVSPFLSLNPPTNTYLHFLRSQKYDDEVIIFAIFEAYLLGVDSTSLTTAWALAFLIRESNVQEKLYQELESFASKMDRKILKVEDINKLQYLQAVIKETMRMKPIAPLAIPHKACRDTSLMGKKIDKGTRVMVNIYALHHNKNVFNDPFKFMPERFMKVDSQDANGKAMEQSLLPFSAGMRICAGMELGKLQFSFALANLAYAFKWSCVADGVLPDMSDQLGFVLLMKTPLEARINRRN

T2 sequence (B5UAQ8 whole entry): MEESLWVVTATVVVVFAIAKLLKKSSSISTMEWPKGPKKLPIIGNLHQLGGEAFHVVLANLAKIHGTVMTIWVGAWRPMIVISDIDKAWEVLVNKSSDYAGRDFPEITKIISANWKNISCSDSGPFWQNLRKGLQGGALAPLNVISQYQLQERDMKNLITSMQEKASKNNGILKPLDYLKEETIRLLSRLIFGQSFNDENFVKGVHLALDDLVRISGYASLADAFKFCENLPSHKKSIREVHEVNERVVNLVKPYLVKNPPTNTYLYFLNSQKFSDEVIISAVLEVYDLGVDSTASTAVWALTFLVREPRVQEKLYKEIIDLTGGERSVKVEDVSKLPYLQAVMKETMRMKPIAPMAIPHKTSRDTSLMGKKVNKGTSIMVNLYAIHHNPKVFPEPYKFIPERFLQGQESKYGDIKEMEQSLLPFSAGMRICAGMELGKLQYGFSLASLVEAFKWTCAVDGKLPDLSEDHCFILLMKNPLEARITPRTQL
T1 sequence (P30986 24-538): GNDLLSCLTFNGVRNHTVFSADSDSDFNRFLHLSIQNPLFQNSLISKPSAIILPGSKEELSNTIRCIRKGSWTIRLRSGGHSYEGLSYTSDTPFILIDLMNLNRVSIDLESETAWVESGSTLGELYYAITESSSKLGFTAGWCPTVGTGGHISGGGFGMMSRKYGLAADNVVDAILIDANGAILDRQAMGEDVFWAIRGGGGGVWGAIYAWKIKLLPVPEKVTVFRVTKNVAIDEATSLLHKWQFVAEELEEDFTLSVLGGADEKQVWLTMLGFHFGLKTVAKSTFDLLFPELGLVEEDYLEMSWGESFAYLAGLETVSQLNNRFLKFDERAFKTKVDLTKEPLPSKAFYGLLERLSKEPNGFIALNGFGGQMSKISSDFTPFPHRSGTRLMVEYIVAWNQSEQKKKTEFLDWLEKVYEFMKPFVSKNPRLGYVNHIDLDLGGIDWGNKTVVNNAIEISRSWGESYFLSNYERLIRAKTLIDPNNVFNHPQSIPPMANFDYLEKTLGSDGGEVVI

## COc1ccc(CC2c3cc(O)c(OC)cc3CCN2C)cc1O (racemic) [(R, S)-reticuline]
[1]
  LC-MS of product formed by Pichia cells expressing the enzyme: reaction products of BBE and CYP719A5 (i.e., scoulerine from reticuline and cheilanthifoline from scoulerine)

## COc1cc2c(cc1O)[C@@H]1Cc3ccc(OC)c(O)c3CN1CC2 [(S)-scoulerine]
[2]
  LC-MS of product formed by Pichia cells expressing the enzyme: The formation of cheilanthifoline by CYP719A5 from scoulerine was confirmed by the production of stylopine

## COc1cc2c(cc1O)[C@@H]1Cc3ccc4c(c3CN1CC2)OCO4 [cheilanthifoline]
[3]
  LC-MS of product formed by Pichia cells expressing the enzyme: CYP719A5 reaction product (chielanthifoline) for CYP719A2 reaction
